{"source": "paper PMC11220827", "about": "(Frontiers in Pharmacology, 2024)", "key": {"HepG2 cells": {"tested_on": "HepG2 cells", "assay": "cells", "format": "cell-based"}, "Transthyretin (TTR)": {"target": "Transthyretin (TTR) (Homo sapiens, UniProt P02766)", "conditions": "reference", "experimental": "DMSO (1% compound stock in incubation mixture). The incubation mixture was transferred to 96 -\nwas measured on a Berthold luminometer.\nSerial dilutions of the compounds were incubated in Tris -buffer (pH 8.0) overnight at 4°C in the\nincubation mixture). After incubation, TTR-bound and free T4 were separated on a Bio-Gel P-6DG\ncolumn. The eluate was added to assay medium after which TRβ CALUX cells were exposed for 24 h\n(see CALUX bioassays). For this TRβ CALUX exposure, serum-free assay medium was used."}, "[1]": {"target": "T1, human thyroid peroxidase (hTPO) (Homo sapiens, UniProt P07202)", "T1 sequence (P07202 19-933)": "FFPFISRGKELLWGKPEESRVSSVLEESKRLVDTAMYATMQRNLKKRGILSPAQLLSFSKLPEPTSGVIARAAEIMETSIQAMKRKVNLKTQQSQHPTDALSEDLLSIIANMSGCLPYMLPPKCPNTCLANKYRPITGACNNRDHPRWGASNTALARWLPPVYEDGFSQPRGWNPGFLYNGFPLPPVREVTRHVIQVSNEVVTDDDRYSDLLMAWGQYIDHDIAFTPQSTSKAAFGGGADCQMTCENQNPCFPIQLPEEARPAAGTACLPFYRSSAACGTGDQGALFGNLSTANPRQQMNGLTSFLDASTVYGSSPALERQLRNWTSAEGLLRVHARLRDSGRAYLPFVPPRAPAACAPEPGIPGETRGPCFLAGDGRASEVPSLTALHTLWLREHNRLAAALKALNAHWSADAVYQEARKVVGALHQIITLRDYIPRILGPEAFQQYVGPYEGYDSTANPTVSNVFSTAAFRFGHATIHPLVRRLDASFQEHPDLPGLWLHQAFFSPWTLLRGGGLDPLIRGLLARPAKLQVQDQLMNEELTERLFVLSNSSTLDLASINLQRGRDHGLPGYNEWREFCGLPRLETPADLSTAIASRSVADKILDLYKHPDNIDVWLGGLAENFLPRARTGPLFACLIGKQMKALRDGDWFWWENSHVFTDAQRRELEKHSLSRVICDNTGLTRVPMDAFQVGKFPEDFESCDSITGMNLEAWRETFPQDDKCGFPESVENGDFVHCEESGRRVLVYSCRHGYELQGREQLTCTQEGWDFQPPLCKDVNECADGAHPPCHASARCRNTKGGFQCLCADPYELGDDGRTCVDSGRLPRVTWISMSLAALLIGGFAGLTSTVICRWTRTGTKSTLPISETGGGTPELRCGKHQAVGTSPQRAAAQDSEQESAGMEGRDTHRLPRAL", "conditions": "reference", "experimental": "hTPO was derived from Nthy-ori 3-1 cells. Cell lysate containing hTPO in Glycine-NaOH buffer (pH\n9.0) was incubated for 30 minutes at 37°C in the presence of serial dilutions of the compounds in\nDMSO (1% compound stock in incubation mixture).\nwas measured on a Berthold luminometer.\nPreincubation with rat liver S9 fraction\nTo assess the effect of metabolism on the activity of the test\ncompound for these assays, preincubations with rat liver S9 were performed."}, "[2]": {"conditions": "HepG2, 24 h, NR = No response observed"}}, "note": "Read-outs that look alike come from different tables or passages of the source.", "data": [{"molecule": "CCCCS(=N)(=O)CCC(N)C(=O)O", "note": "[L-BSO, reference compound]", "values": [{"measurement": "GSH content: Effect", "setting": "HepG2 cells", "result": "decrease"}, {"measurement": "GSH content: MEC", "setting": "HepG2 cells", "result": 0.725, "unit": "µM"}, {"measurement": "AC50", "setting": "HepG2 cells; HepG2, 24 h, read-out: GSH content: AC50", "result": 37.5, "unit": "µM"}]}, {"molecule": "CN(CCOc1ccc(CC2SC(=O)NC2=O)cc1)c1ccccn1", "note": "(stereo not drawn) [Rosiglitazone, reference compound]", "values": [{"measurement": "AC50", "setting": "HepG2 cells; Homo sapiens, HepG2, 24 h, read-out: Mitochondrial oxidative stress: PGC1α: AC50", "result": "> 125", "unit": "µM"}, {"measurement": "Mitochondrial oxidative stress: PGC1α: MEC", "setting": "HepG2 cells; human, 24 h", "result": 67.8, "unit": "µM"}]}, {"molecule": "[Cd+2].[Cl-].[Cl-]", "note": "[Cadmium (II) chloride, reference compound]", "values": [{"measurement": "Metal stress: MTF1: MEC", "setting": "HepG2 cells; HepG2, 24 h", "result": 0.0751, "unit": "µM"}, {"measurement": "Metal stress: metallothionein: MEC", "setting": "HepG2 cells; HepG2, 24 h", "result": 0.0751, "unit": "µM"}, {"measurement": "Metal stress: MTF1: Effect", "setting": "HepG2 cells; [2]", "result": "increase"}, {"measurement": "Metal stress: metallothionein: Effect", "setting": "HepG2 cells; [2]", "result": "increase"}, {"measurement": "AC50", "setting": "HepG2 cells; HepG2, 24 h, read-out: Metal stress: MTF1: AC50", "result": 7.05, "unit": "µM"}, {"measurement": "AC50", "setting": "HepG2 cells; HepG2, 24 h, read-out: Metal stress: metallothionein: AC50", "result": 7.05, "unit": "µM"}]}, {"molecule": "C=C(C)[C@H]1Cc2c(ccc3c2O[C@@H]2COc4cc(OC)c(OC)cc4[C@@H]2C3=O)O1", "note": "[Rotenone, reference compound]", "values": [{"measurement": "Cellular ATP: MEC", "setting": "HepG2 cells; HepG2, 24 h", "result": "< 0.04", "unit": "µM"}, {"measurement": "LDH release: MEC", "setting": "HepG2 cells; HepG2, 24 h", "result": 0.138, "unit": "µM"}, {"measurement": "Mitochondrial membrane potential: MEC", "setting": "HepG2 cells; HepG2, 24 h", "result": 0.00254, "unit": "µM"}, {"measurement": "Oxidative stress (ROS): MEC", "setting": "HepG2 cells; HepG2, 24 h", "result": 0.681, "unit": "µM"}, {"measurement": "Seahorse assay: Extracellular acidification rate (ECAR): MEC", "setting": "HepG2 cells; HepG2, 24 h", "result": 0.00546, "unit": "µM"}, {"measurement": "Seahorse assay: oxygen consumption rate (OCR): MEC", "setting": "HepG2 cells; HepG2, 24 h", "result": 0.000832, "unit": "µM"}, {"measurement": "Seahorse assay: reserve capacity: MEC", "setting": "HepG2 cells; HepG2, 24 h", "result": 0.000657, "unit": "µM"}, {"measurement": "AC50", "setting": "HepG2 cells; Homo sapiens, HepG2, 24 h, read-out: Cellular ATP: AC50", "result": 3.05, "unit": "µM"}, {"measurement": "AC50", "setting": "HepG2 cells; Homo sapiens, HepG2, 24 h, read-out: LDH release: AC50", "result": 57.6, "unit": "µM"}, {"measurement": "AC50", "setting": "HepG2 cells; Homo sapiens, HepG2, 24 h, read-out: Mitochondrial membrane potential: AC50", "result": 0.094, "unit": "µM"}, {"measurement": "AC50", "setting": "HepG2 cells; Homo sapiens, HepG2, 24 h, read-out: Oxidative stress (ROS): AC50", "result": "> 100", "unit": "µM"}, {"measurement": "AC50", "setting": "HepG2 cells; Homo sapiens, HepG2, 24 h, read-out: Seahorse assay: Extracellular acidification rate (ECAR): AC50", "result": 0.00549, "unit": "µM"}, {"measurement": "AC50", "setting": "HepG2 cells; Homo sapiens, HepG2, 24 h, read-out: Seahorse assay: oxygen consumption rate (OCR): AC50", "result": 0.00432, "unit": "µM"}, {"measurement": "AC50", "setting": "HepG2 cells; Homo sapiens, HepG2, 24 h, read-out: Seahorse assay: reserve capacity: AC50", "result": 0.00248, "unit": "µM"}]}, {"molecule": "CC(C)(c1cc(Br)c(O)c(Br)c1)c1cc(Br)c(O)c(Br)c1", "note": "[Tetrabromobisphenol A, reference compound]", "values": [{"measurement": "TTR binding (thyroid) LOEC, reference compound", "setting": "Transthyretin (TTR)", "result": "−7.9", "unit": "Log M"}]}, {"molecule": "Cc1oncc1C(=O)Nc1ccc(C(F)(F)F)cc1", "note": "[Leflunamide, reference compound]", "values": [{"measurement": "Nuclear size: Effect", "setting": "HepG2 cells", "result": "increase"}, {"measurement": "Nuclear size: MEC", "setting": "HepG2 cells", "result": 1.18, "unit": "µM"}, {"measurement": "AC50", "setting": "HepG2 cells; HepG2, 24 h, read-out: Nuclear size: AC50", "result": 9.87, "unit": "µM"}]}, {"molecule": "Cn1cc[nH]c1=S", "note": "[Methimazole, reference compound]", "values": [{"measurement": "hTPO inhibition (thyroid) LOEC, reference compound", "setting": "[1]", "result": "−6.3", "unit": "Log M"}]}, {"molecule": "CN[C@H]1CC[C@@H](c2ccc(Cl)c(Cl)c2)c2ccccc21", "note": "[Sertraline, reference compound]", "values": [{"measurement": "ER stress panel 2: PERK: Effect", "setting": "HepG2 cells", "result": "increase"}, {"measurement": "Phospholipidosis: Effect", "setting": "HepG2 cells", "result": "increase"}, {"measurement": "Steatosis: Effect", "setting": "HepG2 cells", "result": "increase"}, {"measurement": "AC50", "setting": "HepG2 cells; Homo sapiens, HepG2, 24 h, read-out: ER stress panel 2: PERK: AC50", "result": "> 6.25", "unit": "µM"}, {"measurement": "ER stress panel 2: PERK: MEC", "setting": "HepG2 cells; human, 24 h", "result": 2.17, "unit": "µM"}, {"measurement": "Phospholipidosis: Fold increase", "setting": "HepG2 cells; human, 24 h", "result": 4.16}, {"measurement": "Phospholipidosis: MEC", "setting": "HepG2 cells; human, 24 h", "result": 0.0965, "unit": "µM"}, {"measurement": "Steatosis: Fold increase", "setting": "HepG2 cells; human, 24 h", "result": 2.02}, {"measurement": "Steatosis: MEC", "setting": "HepG2 cells; human, 24 h", "result": 8.36, "unit": "µM"}]}, {"molecule": "C=C(CC)C(=O)c1ccc(OCC(=O)O)c(Cl)c1Cl", "note": "[Ethacrynic acid, reference compound]", "values": [{"measurement": "AC50", "setting": "HepG2 cells; Homo sapiens, HepG2, 24 h, read-out: Oxidative stress: HMOX1: AC50", "result": 19.2, "unit": "µM"}, {"measurement": "AC50", "setting": "HepG2 cells; Homo sapiens, HepG2, 24 h, read-out: Oxidative stress: NRF2: AC50", "result": 28, "unit": "µM"}, {"measurement": "AC50", "setting": "HepG2 cells; Homo sapiens, HepG2, 24 h, read-out: Oxidative stress: SRXN1: AC50", "result": 19, "unit": "µM"}, {"measurement": "Oxidative stress: HMOX1: MEC", "setting": "HepG2 cells; human, 24 h", "result": 0.824, "unit": "µM"}, {"measurement": "Oxidative stress: NRF2: MEC", "setting": "HepG2 cells; human, 24 h", "result": 3.52, "unit": "µM"}, {"measurement": "Oxidative stress: SRXN1: MEC", "setting": "HepG2 cells; human, 24 h", "result": 6.17, "unit": "µM"}]}]}
